Data reported in patent publication US9822130B2, “Triazolo-pyrazinyl derivatives useful as soluble guanylate cyclase activators” (Merck Sharp & Dohme Corp., priority 2014, dated 2017).

Target: T1, sGC α1/β1 heterodimer stably expressed in CHO-K1 cell line (CHO-K1/sGC) (Homo sapiens, UniProt Q02108+Q02153)
T1 construct: expressed in transfected cells
T1 sequence (Q02108 1-690): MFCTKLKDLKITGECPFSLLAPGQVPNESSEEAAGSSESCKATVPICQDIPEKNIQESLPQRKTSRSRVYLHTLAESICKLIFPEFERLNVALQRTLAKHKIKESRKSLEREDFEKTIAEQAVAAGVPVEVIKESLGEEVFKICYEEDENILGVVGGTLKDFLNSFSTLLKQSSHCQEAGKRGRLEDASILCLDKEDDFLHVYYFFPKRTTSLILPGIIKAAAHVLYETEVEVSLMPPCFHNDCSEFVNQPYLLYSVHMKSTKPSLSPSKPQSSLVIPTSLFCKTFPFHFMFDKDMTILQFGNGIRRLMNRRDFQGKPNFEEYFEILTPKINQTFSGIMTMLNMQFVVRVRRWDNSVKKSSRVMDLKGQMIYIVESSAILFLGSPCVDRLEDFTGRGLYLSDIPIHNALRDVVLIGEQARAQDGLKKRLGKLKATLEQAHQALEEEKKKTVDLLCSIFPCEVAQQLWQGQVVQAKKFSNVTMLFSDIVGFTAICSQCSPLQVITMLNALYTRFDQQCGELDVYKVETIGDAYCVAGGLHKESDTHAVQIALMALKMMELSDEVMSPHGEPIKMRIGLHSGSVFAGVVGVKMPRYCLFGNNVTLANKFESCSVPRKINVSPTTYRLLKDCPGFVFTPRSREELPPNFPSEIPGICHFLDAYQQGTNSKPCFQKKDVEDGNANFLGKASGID
T1 sequence (Q02153 1-619): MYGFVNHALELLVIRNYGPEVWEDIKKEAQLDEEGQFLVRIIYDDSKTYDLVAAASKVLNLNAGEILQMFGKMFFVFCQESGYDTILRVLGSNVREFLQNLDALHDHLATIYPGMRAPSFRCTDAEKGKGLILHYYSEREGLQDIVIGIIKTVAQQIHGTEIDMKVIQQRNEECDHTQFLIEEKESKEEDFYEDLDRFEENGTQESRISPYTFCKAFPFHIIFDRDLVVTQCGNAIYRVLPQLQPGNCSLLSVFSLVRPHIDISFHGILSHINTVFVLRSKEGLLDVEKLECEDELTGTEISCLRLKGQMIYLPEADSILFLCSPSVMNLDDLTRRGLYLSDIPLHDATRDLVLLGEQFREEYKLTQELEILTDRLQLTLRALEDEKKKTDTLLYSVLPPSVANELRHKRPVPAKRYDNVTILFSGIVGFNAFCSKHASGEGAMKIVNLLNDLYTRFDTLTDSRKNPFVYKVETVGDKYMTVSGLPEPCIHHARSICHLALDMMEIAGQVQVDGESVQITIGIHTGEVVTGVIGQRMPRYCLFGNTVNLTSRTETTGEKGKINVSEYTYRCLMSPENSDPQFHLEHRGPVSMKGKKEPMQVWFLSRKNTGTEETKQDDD
Assay: Cell-based sGC Functional Assay (CASA Assay), cGMP generation
Settings: CHO-K1/sGC cells, 1 hr at 37° C., cGMP by HTRF, presence or absence of 1 μM DETA-NO not given; for EC50: 4P fit, read-out: IP (nM) (inflection point)
Outline: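 Readout is HTRF cGMP in lysates, normalised to the maximal response of reference sGC activator Compound A (100%), with a 4P fit giving IP and fold induction. Cells were CHO-K1/sGC (human α1/β1) in EBSS buffer with IBMX, incubated 1 hr at 37° C with compound. Run with and without 1 μM DETA-NO; final DMSO 2.5%.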

Row | EC50 [nM] | Emax (read-out: % Act. (percent activation relative to maximum cGMP production of Compound A = 100%)) [%] | Structure (SMILES)
1 | 20 | – | CC1(c2ccc(Cl)c(F)c2)C(=O)Nc2nc(-c3cn4ncnc4c(CCC(F)(F)F)n3)nc(N)c21 (stereo not shown) [Example 75B, 4-amino-5-(4-chloro-3-fluorophenyl)-5-methyl-2-(8-(3,3,3-trifluoropropyl)-[1,2,4]triazolo[1,5-a]pyrazin-6-yl)-5H-pyrrolo[2,3-d]pyrimidin-6(7H)-one]
2 | 154 | – | CC1(c2ccc(Cl)cc2)C(=O)Nc2nc(-c3cn4ncnc4c(CCC(F)(F)F)n3)nc(N)c21 (stereo not shown) [Example 76A, 4-amino-5-(4-chlorophenyl)-5-methyl-2-(8-(3,3,3-trifluoropropyl)-[1,2,4]triazolo[1,5-a]pyrazin-6-yl)-5H-pyrrolo[2,3-d]pyrimidin-6(7H)-one]
3 | 333 | – | CC1(c2ccc(C(F)(F)F)cc2)C(=O)Nc2nc(-c3cn4ncnc4c(CCC(F)(F)F)n3)nc(N)c21 (stereo not shown) [Example 77B, 4-amino-5-methyl-5-(4-(trifluoromethyl)phenyl)-2-(8-(3,3,3-trifluoropropyl)-[1,2,4]triazolo[1,5-a]pyrazin-6-yl)-5H-pyrrolo[2,3-d]pyrimidin-6(7H)-one]
4 | 550 | – | CC1(c2ccc(C(F)(F)F)cn2)C(=O)Nc2nc(-c3cn4ncnc4c(CCC(F)(F)F)n3)nc(N)c21 (stereo not shown) [Example 78B, 4-amino-5-methyl-5-(5-(tritluoromethyl)pyridin-2-yl)-2-(8-(3,3,3-trifluoropropyl)-[1,2,4]triazolo[1,5-d]pyrazin-6-yl)-5H-pyrrolo[2,3-d]pyrimidin-6(7H)-one]
5 | 325 | – | CC1(c2ccc(Cl)cn2)C(=O)Nc2nc(-c3cn4ncnc4c(CCC(F)(F)F)n3)nc(N)c21 (stereo not shown) [Example 79A, 4-amino-5-(5-chloropyridin-2-yl)-5-methyl-2-(8-(3,3,3-trifluoropropyl)-[1,2,4]triazolo[1,5-a]pyrazin-6-yl)-5H-pyrrolo[2,3-d]pyrimidin-6(7H)-one]
6 | 2490 | – | Nc1nc(-c2cn3ncnc3c(CCC(F)(F)F)n2)nc2c1C(c1ccc(C(F)(F)F)cn1)(C1CC1)C(=O)N2 (stereo not shown) [Example 80A, 4-amino-5-cyclopropyl-5-(5-(trifluoromethyl)pyridin-2-yl)-2-(8-(3,3,3-trifluoropropyl)-[1,2,4]triazolo[1,5-a]pyrazin-6-yl)-5H-pyrrolo[2,3-d]pyrimidin-6(7H)-one]
7 | 698 | – | CC1(c2ccc(F)cn2)C(=O)Nc2nc(-c3cn4ncnc4c(CCC(F)(F)F)n3)nc(N)c21 (stereo not shown) [Example 81B, 4-amino-5-(5-fluoropyridin-2-yl)-5-methyl-2-(8-(3,3,3-trifluoropropyl)-[1,2,4]triazolo[1,5-a]pyrazin-6-yl)-5H-pyrrolo[2,3-d]pyrimidin-6(7H)-one]
8 | 555 | – | Nc1nc(-c2cn3ncnc3c(CCC(F)(F)F)n2)nc2c1C(c1ccc(Cl)cn1)(C1CC1)C(=O)N2 (stereo not shown) [Example 82A, 4-amino-5-(5-chloropyridin-2-yl)-5-cyclopropyl-2-(8-(3,3,3-trifluoropropyl)-[1,2,4]triazolo[1,5-a]pyrazin-6-yl)-5H-pyrrolo[2,3-d]pyrimidin-6(7H)-one]
9 | 270 | 100 | Nc1nc(-c2cn3ncnc3c(CCC(F)(F)F)n2)nc2c1C(c1ccc(F)c(F)c1)(C1CC1)C(=O)N2 (stereo not shown) [Example 83A, 4-amino-5-cyclopropyl-5-(3,4-difluorophenyl)-2-(8-(3,3,3-trifluoropropyl)-[1,2,4]triazolo[1,5-a]pyrazin-6-yl)-5H-pyrrolo[2,3-d]pyrimidin-6(7H)-one]
10 | 55.7 | – | CC1(c2ccc(F)c(F)c2)C(=O)Nc2nc(-c3cn4ncnc4c(CCC(F)(F)F)n3)nc(N)c21 (stereo not shown) [Example 84B, 4-amino-5-(3,4-difluorophenyl)-5-methyl-2-(8-(3,3,3-trifluoropropyl)-[1,2,4]triazolo[1,5-a]pyrazin-6-yl)-5H-pyrrolo[2,3-d]pyrimidin-6(7H)-one]
11 | 10.6 | – | C[C@@]1(c2ccc(F)cc2)C(=O)Nc2nc(-c3cn4ncnc4c(Cc4ccc(F)cc4)n3)nc(N)c21 [Example 85B, (S)-4-amino-2-(8-(4-fluorobenzyl)-[1,2,4]triazolo[1,5-a]pyrazin-6-yl)-5-(4-fluorophenyl)-5-methyl-5H-pyrrolo[2,3-d]pyrimidin-6(7H)-one]
12 | 26.4 | – | COc1cccc(Cc2nc(-c3nc(N)c4c(n3)NC(=O)[C@@]4(C)c3ccc(F)cc3)cn3ncnc23)c1 [Example 86B, (S)-4-amino-5-(4-fluorophenyl)-2-(8-(3-methoxybenzyl)-[1,2,4]triazolo[1,5-a]pyrazin-6-yl)-5-methyl-5H-pyrrolo[2,3-d]pyrimidin-6(7H)-one]
13 | 80.2 | – | Cc1nc2c(Cc3ccc(F)cc3)nc(-c3nc(N)c4c(n3)NC(=O)[C@@]4(C)c3ccc(F)cc3)cn2n1 [Example 87B, (S)-4-amino-2-(8-(4-fluorobenzyl)-2-methyl-[1,2,4]triazolo[1,5-a]pyrazin-6-yl)-5-(4-fluorophcnyl)-5-methyl-5H-pyrrolo[2,3-d]pyrimidin-6(7H)-one]
14 | 65 | – | Cc1nc2c(CCC(F)(F)C(F)(F)F)nc(-c3nc(N)c4c(n3)NC(=O)[C@@]4(C)c3ccc(F)cc3)cn2n1 [Example 88B, (S)-4-amino-5-(4-fluorophenyl)-5-methyl-2-(2-methyl-8-(3,3,4,4,4-pentafluorobutyl)-[1,2,4]triazolo[1,5-a]pyrazin-6-yl)-5H-pyrrolo[2,3-d]pyrimidin-6(7H)-one]
15 | 260 | – | Cc1nc2c(CCC(F)(F)C(F)(F)F)nc(-c3nc(N)c4c(n3)NC(=O)C4(C)c3ccc(F)cn3)cn2n1 (stereo not shown) [Example 89B, 4-amino-5-(5-fluoropyridin-2-yl)-5-methyl-2-(2-methyl-8-(3,3,4,4,4-pentafluorobutyl)-[1,2,4]triazolo[1,5-a]pyrazin-6-yl)-5H-pyrrolo[2,3-d]pyrimidin-6(7H)-one]
16 | 36.6 | – | Cc1nc2c(CCC(F)(F)C(F)(F)F)nc(-c3nc(N)c4c(n3)NC(=O)C4(C)c3ccc(Cl)c(F)c3)cn2n1 (stereo not shown) [Example 90B, 4-amino-5-(4-chloro-3-fluorophenyl)-5-methyl-2-(2-methyl-8-(3,3,4,4,4-pentafluorobutyl)-[1,2,4]triazolo[1,5-a]pyrazin-6-yl)-5H-pyrrolo[2,3-d]pyrimidin-6(7H)-one]
17 | 668 | – | CCCc1nc(-c2nc(N)c3c(n2)NC(=O)[C@@]3(C)c2ccc(F)cc2)cn2nc(C)nc12 [Example 91A, (S)-4-amino-5-(4-fluorophenyl)-5-methyl-2-(2-methyl-8-propyl-[1,2,4]triazolo[1,5-a]pyrazin-6-yl)-5,7-dihydro-6H-pyrrolo[2,3-d]pyrimidin-6-one]
18 | 4830 | – | CCCc1nc(-c2nc(N)c3c(n2)NC(=O)C3(C)c2ccc(F)cn2)cn2nc(C)nc12 (stereo not shown) [Example 92B, 4-amino-5-(5-fluoropyridin-2-yl)-5-methyl-2-(2-methyl-8-propyl-[1,2,4]triazolo[1,5-a]pyrazin-6-yl)-5H-pyrrolo[2,3-d]pyrimidin-6(7H)-one]
19 | 439 | – | CCCc1nc(-c2nc(N)c3c(n2)NC(=O)C3(C)c2ccc(Cl)cc2)cn2nc(C)nc12 (stereo not shown) [Example 93A, 4-amino-5-(4-chlorophenyl)-5-methyl-2-(2-methyl-8-propyl-[1,2,4]triazolo[1,5-a]pyrazin-6-yl)-5H-pyrrolo[2,3-d]pyrimidin-6(7H)-one]
20 | 79.4 | – | CC1(c2ccc(Cl)cc2)C(=O)Nc2nc(-c3cn4ncnc4cn3)nc(N)c21 (stereo not shown) [Example 94A, 2-([1,2,4]triazolo[1,5-a]pyrazin-6-yl)-4-amino-5-(4-chlorophenyl)-5-methyl-5H-pyrrolo[2,3-d]pyrimidin-6(7H)-one]
21 | 257 | – | CC1(c2cn(C3CC3)nn2)C(=O)Nc2nc(-c3cn4ncnc4c(CCC(F)(F)C(F)(F)F)n3)nc(N)c21 (stereo not shown) [Example 95B, 4-Amino-5-(1-cyclopropyl-1H-1,2,3-triazol-4-yl)-5-methyl-2-(8-(3,3,4,4,4-pentafluorobutyl)-[1,2,4]triazolo[1,5-a]pyrazin-6-yl)-5H-pyrrolo[2,3-d]pyrimidin-6(7H)-one]
